Converted amounts (≈) assume the structure as drawn.
Tests used:
[1] = target: T1, Peptide deformylase 1A, chloroplastic/mitochondrial (Arabidopsis thaliana, UniProt Q9FV53)
T1 sequence (Q9FV53 whole entry): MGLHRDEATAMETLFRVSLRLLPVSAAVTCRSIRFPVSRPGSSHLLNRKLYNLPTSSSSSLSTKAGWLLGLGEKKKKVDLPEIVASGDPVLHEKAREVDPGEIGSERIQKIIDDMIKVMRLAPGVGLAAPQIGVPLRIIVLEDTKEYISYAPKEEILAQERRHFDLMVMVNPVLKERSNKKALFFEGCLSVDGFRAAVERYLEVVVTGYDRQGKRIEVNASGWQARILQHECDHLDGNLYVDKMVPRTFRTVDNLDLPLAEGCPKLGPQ

Peptide deformylase = target: T2, Peptide deformylase (Escherichia coli, UniProt Q9JN24)
T2 sequence (Q9JN24 whole entry): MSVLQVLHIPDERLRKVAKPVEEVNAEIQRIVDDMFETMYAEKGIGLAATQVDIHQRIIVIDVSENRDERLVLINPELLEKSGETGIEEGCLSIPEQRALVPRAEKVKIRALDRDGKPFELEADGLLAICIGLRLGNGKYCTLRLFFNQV

Bacillus subtilis [2] = assay: Antibacterial activity against Bacillus subtilis MO3482; assay type: functional
Escherichia coli [3] = assay: Antibacterial activity against Escherichia coli JM101Tr; assay type: functional
Escherichia coli [4] = assay: Antibacterial activity against Escherichia coli CAG1284; assay type: functional
Bacillus subtilis [5] = assay: Antibacterial activity against Bacillus subtilis 168; assay type: functional
Bacillus subtilis [6] = assay: Antibacterial activity against Bacillus subtilis D101; assay type: functional
Bacillus subtilis [7] = assay: Antibacterial activity against Bacillus subtilis Y101; assay type: functional
[8] = target: T3, Peptide deformylase, mitochondrial (Homo sapiens, UniProt Q9HBH1)
T3 sequence (Q9HBH1 whole entry): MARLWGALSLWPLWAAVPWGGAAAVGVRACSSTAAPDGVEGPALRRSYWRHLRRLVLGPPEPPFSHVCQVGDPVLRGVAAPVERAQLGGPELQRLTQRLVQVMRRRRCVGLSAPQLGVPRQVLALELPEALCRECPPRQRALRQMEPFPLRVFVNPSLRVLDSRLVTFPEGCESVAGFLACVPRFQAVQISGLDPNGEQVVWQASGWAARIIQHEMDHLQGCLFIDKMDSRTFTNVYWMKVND

Bacillus subtilis [9] = assay: Antibacterial activity against Bacillus subtilis; assay type: functional
Escherichia coli [10] = assay: Antibacterial activity against Escherichia coli K37; assay type: functional

Structure (SMILES)	IC50 [1]	IC50 (Peptide deformylase)	MIC (Escherichia coli [3])	also measured
CC(C)(C)OC(=O)NC(CNO)Cc1ccccc1 (stereo not given)	> 1000 µM	52 µM	–	–
O=C(CO)Cc1c[nH]c2ccc(Br)cc12	790 µM	560 µM	> 300 µg/mL	MIC (Bacillus subtilis [2]): > 300 µg/mL; MIC (Escherichia coli [4]): > 300 µg/mL; MIC (Bacillus subtilis [5]): > 300 µg/mL; MIC (Bacillus subtilis [6]): > 300 µg/mL; MIC (Bacillus subtilis [7]): > 300 µg/mL
CC(=O)SCC(=O)Cc1c[nH]c2ccccc12	> 1000 µM	200 µM	–	–
Cc1[nH]c2ccc(Br)cc2c1CC(=O)NO	450 µM	–	> 300 µg/mL	IC50 [8]: 450 µM; MIC (Bacillus subtilis [9]): 220 µg/mL (≈ 777 µM)
COc1ccc2[nH]cc(CC(=O)NO)c2c1	> 1000 µM	–	> 300 µg/mL	MIC (Bacillus subtilis [9]): 155 µg/mL (≈ 704 µM)
Cc1c(CN(O)C=O)c2cc(Br)ccc2n1S(=O)(=O)c1ccccc1	35 µM	0.03 µM	65 µg/mL (≈ 154 µM)	IC50 [8]: 200 µM; MIC (Bacillus subtilis [9]): 35 µg/mL (≈ 82.7 µM)
O=C(O)Cc1cn(C(=O)OCc2ccccc2)c2ccccc12	> 1000 µM	300 µM	–	–
CC(C)(C)OC(=O)NC(Cc1ccccc1)CN(O)C=O (stereo not given)	–	0.05 µM	> 300 µg/mL	MIC (Bacillus subtilis [2]): > 300 µg/mL; MIC (Escherichia coli [4]): 120 µg/mL (≈ 408 µM); MIC (Bacillus subtilis [5]): > 300 µg/mL; MIC (Bacillus subtilis [6]): > 300 µg/mL; MIC (Bacillus subtilis [7]): 9 µg/mL (≈ 30.6 µM)
CC(=O)SCC(=O)Cc1cn(C(=O)OCc2ccccc2)c2ccccc12	500 µM	350 µM	–	–
O=C(CS)Cc1c[nH]c2ccc(Br)cc12	200 µM	80 µM	–	–
Cc1c(CNO)c2cc(Br)ccc2n1S(=O)(=O)c1ccccc1	500 µM	6 µM	–	–
CC(=O)SCC(=O)Cc1c[nH]c2ccc(Br)cc12	170 µM	120 µM	–	–
Cc1[nH]c2ccc(Br)cc2c1CNO	> 250 µM	50 µM	–	–
CCCCC[C@H](CC(=O)NO)C(=O)N[C@H](C(=O)N1CCC[C@H]1CO)C(C)C [ACTINONIN]	0.027 µM	0.01 µM	34 µg/mL (≈ 88.2 µM)	MIC (Bacillus subtilis [2]): 1 µg/mL (≈ 2.59 µM); MIC (Bacillus subtilis [9]): 1.3 µg/mL (≈ 3.37 µM); MIC (Escherichia coli [10]): 32 µg/mL (≈ 83 µM); MIC (Escherichia coli [4]): 0.125 µg/mL (≈ 0.324 µM); MIC (Bacillus subtilis [5]): 1 µg/mL (≈ 2.59 µM); MIC (Bacillus subtilis [6]): 1 µg/mL (≈ 2.59 µM); MIC (Bacillus subtilis [7]): 0.125 µg/mL (≈ 0.324 µM)
O=C(O)Cc1c[nH]c2ccccc12 [INDOLE-3-ACETIC ACID]	> 1000 µM	> 1000 µM	–	–

From ChEMBL document CHEMBL1139216, “Discovery and refinement of a new structural class of potent peptide deformylase inhibitors” (J Med Chem, 2007)
